From PMC4700268 (Frontiers in Pharmacology, 2016)

Key:
[1] = system: HeLa cells transiently transfected with hOAT1
Procedure: The Hela cells were plated in a 96-well plate and transfected with hOAT1 as described above. […] The controls were prepared simultaneously. After 24 h of incubation, the reagent from the kit CellTiter 96 AQueous One Solution Cell Proliferation Assay (CellTiter 96, PROMEGA, USA) was added. After 1.5 h of incubation at 37°C the absorbance was recorded at 490 nm.

[2] = ref Matthews, 2006, Yan et al.; cited from earlier work
hCNT3 = molecular target: T1, hCNT3 (Homo sapiens, UniProt Q9HAS3); experiment: [3H]ETV uptake in hCNT3 transfected cells; conditions: 5 min, 37°C
T1 sequence (Q9HAS3 1-691): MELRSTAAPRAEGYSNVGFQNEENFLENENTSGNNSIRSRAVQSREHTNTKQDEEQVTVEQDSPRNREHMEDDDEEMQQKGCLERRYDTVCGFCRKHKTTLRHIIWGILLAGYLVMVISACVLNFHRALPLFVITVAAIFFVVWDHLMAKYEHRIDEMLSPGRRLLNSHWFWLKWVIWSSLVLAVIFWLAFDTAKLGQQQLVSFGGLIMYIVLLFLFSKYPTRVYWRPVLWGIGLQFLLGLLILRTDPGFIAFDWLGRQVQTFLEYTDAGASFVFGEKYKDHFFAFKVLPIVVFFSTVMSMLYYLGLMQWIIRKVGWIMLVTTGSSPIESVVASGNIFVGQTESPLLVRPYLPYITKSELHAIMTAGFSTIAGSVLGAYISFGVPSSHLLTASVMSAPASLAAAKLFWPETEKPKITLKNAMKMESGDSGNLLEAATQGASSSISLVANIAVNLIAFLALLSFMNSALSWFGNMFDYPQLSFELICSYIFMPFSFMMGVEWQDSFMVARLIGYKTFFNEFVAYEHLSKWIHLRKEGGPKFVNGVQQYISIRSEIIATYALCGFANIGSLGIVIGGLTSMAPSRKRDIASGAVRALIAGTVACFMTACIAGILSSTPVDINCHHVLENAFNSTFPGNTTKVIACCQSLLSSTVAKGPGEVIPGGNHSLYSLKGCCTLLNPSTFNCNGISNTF

hOAT1 [3] = molecular target: T2, hOAT1 (Homo sapiens, UniProt Q4U2R8); experiment: [3H]ETV uptake in hOAT1 transfected cells; format: in vitro ADME; parameters: host or cells: HeLa cells, transient transfection; conditions: 5 min, 37°C
T2 sequence (Q4U2R8 1-563): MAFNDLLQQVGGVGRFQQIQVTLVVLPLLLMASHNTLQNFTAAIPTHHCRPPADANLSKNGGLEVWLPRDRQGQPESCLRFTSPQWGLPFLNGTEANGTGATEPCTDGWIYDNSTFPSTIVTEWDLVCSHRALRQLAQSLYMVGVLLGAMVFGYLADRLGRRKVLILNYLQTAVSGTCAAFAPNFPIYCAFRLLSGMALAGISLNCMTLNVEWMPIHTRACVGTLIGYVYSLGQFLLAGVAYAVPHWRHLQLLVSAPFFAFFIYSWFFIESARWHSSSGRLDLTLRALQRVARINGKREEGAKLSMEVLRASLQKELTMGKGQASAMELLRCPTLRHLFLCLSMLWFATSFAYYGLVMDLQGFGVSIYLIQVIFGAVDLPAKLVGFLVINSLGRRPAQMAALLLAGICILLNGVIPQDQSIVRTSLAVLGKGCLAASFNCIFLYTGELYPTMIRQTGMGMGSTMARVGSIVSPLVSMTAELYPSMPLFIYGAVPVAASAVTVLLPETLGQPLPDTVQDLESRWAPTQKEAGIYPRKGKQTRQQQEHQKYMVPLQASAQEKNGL

hCNT2 = molecular target: T3, hCNT2 (Homo sapiens, UniProt O43868); experiment: Inhibition of [3H]uridine uptake in hCNT2 transfected MDCK II cells; format: in vitro ADME; parameters: host or cells: MDCK II cells, transient transfection; conditions: 1 μM [3H]uridine, MDCK II cells transiently transfected with hCNT2, 2 min, 37°C; read-out: IC50, inhibition of hCNT2 mediated transport
T3 sequence (O43868 1-658): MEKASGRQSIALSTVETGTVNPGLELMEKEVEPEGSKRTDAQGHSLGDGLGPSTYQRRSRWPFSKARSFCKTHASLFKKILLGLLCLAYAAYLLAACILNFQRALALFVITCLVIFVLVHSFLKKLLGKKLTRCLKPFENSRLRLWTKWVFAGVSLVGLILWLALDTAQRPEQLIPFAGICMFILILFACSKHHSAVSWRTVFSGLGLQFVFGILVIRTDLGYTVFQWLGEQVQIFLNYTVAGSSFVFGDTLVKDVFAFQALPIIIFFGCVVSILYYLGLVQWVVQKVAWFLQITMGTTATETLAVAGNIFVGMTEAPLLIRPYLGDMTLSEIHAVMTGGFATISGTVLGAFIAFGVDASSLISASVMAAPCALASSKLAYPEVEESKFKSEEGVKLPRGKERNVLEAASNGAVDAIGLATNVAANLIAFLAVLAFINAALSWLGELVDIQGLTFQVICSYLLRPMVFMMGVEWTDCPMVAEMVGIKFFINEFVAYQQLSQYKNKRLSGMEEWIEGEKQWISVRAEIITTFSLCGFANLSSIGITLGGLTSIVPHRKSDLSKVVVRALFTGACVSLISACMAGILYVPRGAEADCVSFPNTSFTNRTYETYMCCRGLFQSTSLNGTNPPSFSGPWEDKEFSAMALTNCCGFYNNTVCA
Procedure: Inhibitory transport assays were carried out in 24-well plates as described previously ([Mandikova et al., 2013]). Transport assays in HeLa cells transiently transfected with the hOAT1 expression construct were performed 48 h after transfection. Transport assays in MDCK II cells transiently transfected with hOCT2, hCNT2 or hCNT3 were performed 24 h after transfection. The cultivation medium was removed and the cells were washed with transport solution and preincubated for 10 min at 37°C. The standard radiolabeled substrate or tested radioactive antiviral substance dissolved in transport solution was added to the cells and incubated for 2 min. [^3H]PAH (1 μM) was used as a prototypical substrate for OATs, [^3H]MPP^+ (1 μM) for OCTs and [^3H]uridine (1 μM) for CNTs. […] After the designated time period, the incubation was stopped by washing the cells twice with ice-cold solution containing 137 mM NaCl and 10 mM HEPES, pH 7.4. The cells were disintegrated with 0.1 mL of Triton X 0.5% in 100 mM NaOH for 1 h.
IC50 values were calculated using non-linear regression analysis using GraphPad Prism software (version 6).

hOAT1 [4] = molecular target: T2, hOAT1; parameters: host or cells: HeLa cells, transient transfection; method as in Xu et al., 2013; conditions: ref Xu et al., 2013; read-out: Km for hOAT1, previously published; cited from earlier work

C=C1[C@H](CO)[C@@H](O)C[C@@H]1n1cnc2c(=O)[nH]c(N)nc21 [ETV, Entecavir]
Effect of hOAT1 expression on cytotoxicity (cell viability) [1]: no significant effect on cell viability
Therapeutic concentrations in plasma following regular doses [2]: below 50 nM
Vmax of [3H]ETV uptake by hCNT3 (hCNT3): 45.84 nmol/mg protein/5 min
Vmax of [3H]ETV uptake by hOAT1 (hOAT1 [3]): 0.91 nmol/mg protein/5 min
IC50 (hCNT2): 242 µM
Km (hOAT1 [4]): 250 µM
